From patent US20120295914A1, “COMBINATION OF ADRENERGIC RECEPTOR AGONIST ALPHA-1 OR ALPHA-2, PREFERABLY BRIMONIDINE WITH FILLERS, PREFERABLY HYALURONIC ACID” (Galderma Research & Development, priority 2009, published 2012)

Experiments:
[1] = tested on: dermabraded skin (cutaneous reactions, redness/bleeding)
Description: In Vivo Dermabrasion Assays in Minipig Minizone Model Using a BURANE XL Laser and Skin Interaction with Brimonidine Gel
The objectives of this study were to assess the local dermal effect of single dermal application of Brimonidine Gel placebo or 1% applied on delimited abraded mini-zone (2.8 cm^2 and different dermabraded skin conditions) in the Gottingen® minipig.
One female Göttingen® minipig (naïve), between 4 and 8 months old, received Dermal (topical) application of Brimonidine Gel at 1% on delimited mini-zones (2.8 cm^2, using a Ringflost®).
each zone is clipped free from hair. On the clipped area (dorsum, avoiding the spinal column and the intra-scapular area), 4 minizones (2 on either side) is delimited using Ringflost® and surrounded with an indelible pen.
The animal is anesthetized (Zoletil®) before dermabrasion. Each minizone is disinfected with chlorexidine. The experimental conditions used for each zone is set as follows:
The Brimonidine gel 1% is gently applied 5 minutes prior to the dermabrasion procedure.
The cutaneous reaction is evaluated immediately, and 2-5 and 10 minutes after the dermabrasion procedure. The skin is examined to evaluate the degree of erythema, edema, desquamation, scab formation and any other lesions. Cutaneous reaction is evaluated according to the grading scale describe in “OCDE Guideline No. 404. Acute dermal irritation/corrosion”. […]

[2] = in vivo; cited from earlier work
[3] = target: α2A-adrenoceptor (Sus scrofa, UniProt P18871); conditions: porcine species; Wikberg-Matsson and Simonsen 2001; cited from earlier work
Chain of α2A-adrenoceptor (P18871 whole entry): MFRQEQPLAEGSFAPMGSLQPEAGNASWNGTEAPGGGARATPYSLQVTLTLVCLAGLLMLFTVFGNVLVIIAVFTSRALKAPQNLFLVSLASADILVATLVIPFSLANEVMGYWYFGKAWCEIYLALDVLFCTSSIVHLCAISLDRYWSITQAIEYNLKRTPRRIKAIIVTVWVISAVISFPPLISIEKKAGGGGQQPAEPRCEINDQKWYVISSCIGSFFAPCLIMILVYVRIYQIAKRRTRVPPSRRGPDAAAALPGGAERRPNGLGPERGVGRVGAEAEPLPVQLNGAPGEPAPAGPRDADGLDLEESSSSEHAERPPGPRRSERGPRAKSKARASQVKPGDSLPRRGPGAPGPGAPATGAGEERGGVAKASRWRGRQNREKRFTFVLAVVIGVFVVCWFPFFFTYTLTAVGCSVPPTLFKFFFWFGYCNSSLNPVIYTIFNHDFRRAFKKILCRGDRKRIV

Brc1c(NC2=NCCN2)ccc2nccnc12 [Brimonidine, (5-Bromo-quinoxalin-6-yl)-(4,5-dihydro-1H-imidazol-2-yl)-amine]
cutaneous reactions (bruising or bleeding) during aesthetic or surgery procedures ([1]; Brimonidine gel 1% topical on dermabraded minizones, conclusion of Example 3): capable of decreasing cutaneous reactions
vasoconstrictor effect (comparative analysis of pictures Z3 vs Z4) ([1]; Brimonidine gel 1% topical, applied 5 minutes prior to dermabrasion, 10 j/cm2, 6 passes, treated zone Z4 vs non-treated Z3, one female minipig): visually more evident starting from 5 min post-dermabrasion until 14 min and beyond
half-life [2]: 4 h
vasoconstrictor activity [3]: potent vasoconstrictor
